# Measurements as given in patent US12213483B1, “Herbicidal compositions comprising trifludimoxazin” (BASF SE, priority 2024, dated 2025).
# Values joined by “and” are separate entries in the source; they are usually repeats but may differ in a detail not shown here. Equal entries are not always repeated.
# Key:
# Format in all cases: in vivo
# [1] = test system: Erigeron canadensis (ERICA); experiment: Post-emergence application in field trials, ERICA; conditions: 22 DAT; water volume 200 l/ha; growth stage 15-20; 25 g ai/ha
# Experimental: (§1) In the examples below, using the method of S. R. Colby (1967) “Calculating synergistic and antagonistic responses of herbicide combinations”, Weeds 15, p. 22ff., the value E, which is expected if the activity of the individual active compounds is only additive, was calculated: E=X+Y−(X·Y/100) • where • X=percent activity using active herbicide A at an application rate a; • Y=percent activity using active trifludimoxazin at an application rate b; • E=expected activity (in %) by A+B at application rates a+b.
# (§2) If the value found experimentally is higher than the value E calculated according to Colby, a synergistic effect is present.
# (§3) On field test sites, natural weed infestation or seeded weeds were treated post-emergence of the weeds.
# (§4) In the field trials, the weedy plants were treated as indicated below.
# (§5) Herbicide A-1 (342 g/I), trifludimoxazin (500 g/I) and saflufenacil (342 g/I) were, together with addition of 1% MSO (methylated seed oil) as adjuvant (unless indicated otherwise), formulated in water as distribution medium as indicated and sprayed with commercial flat fan nozzles.
# (§6) In the following experiments, the herbicidal activity for the individual herbicidal compositions (solo and mixture applications) was assessed at the indicated days after treatment (DAT). […]
# [2] = test system: Erigeron canadensis (ERICA); experiment: Post-emergence application in greenhouse trials, ERICA; conditions: 20 DAT, GS 19
# Experimental: as §1, §2
# (§7) The culture containers used were plastic pots containing loamy sand with approximately 3.0% of humus as substrate. The seeds of the test plants were sown separately for each species.
# For the post-emergence treatment, the test plants were grown to a plant height of from 3 to 15 cm, depending on the plant habit, and only then treated with the active compounds which had been suspended or emulsified in water. To this end, the test plants were either sown directly, and grown in the same containers, or they were first grown separately as seedlings and transplanted into the test containers a few days prior to treatment. […]
# The test period extended over 2 to 4 weeks. During this time, the plants were tended and their response to the individual treatments was evaluated. […]
# [3] = test system: Setaria viridis (SETVI); experiment: Post-emergence application in greenhouse trials, SETVI
# Experimental: as §1, §2, §7
# (§8) For the post-emergence treatment, the test plants were grown to a plant height of from 3 to 15 cm, depending on the plant habit, and only then treated with the active compounds which had been suspended or emulsified in water. To this end, the test plants were either sown directly, and grown in the same containers, or they were first grown separately as seedlings and transplanted into the test containers a few days prior to treatment.
# (§9) Depending on the species, the plants were kept at 10-25° C. and 20-35° C., respectively.
# (§10) The test period extended over 2 to 4 weeks. During this time, the plants were tended and their response to the individual treatments was evaluated.
# (§11) Evaluation was carried out using a scale from 0 to 100. 100 means no emergence of the plants, or complete destruction of at least the above-ground parts, and 0 means no damage or normal course of growth. A good herbicidal activity is given at values of at least 70, and very good herbicidal activity is given at values of at least 85.
# (§12) In the greenhouse trials, unless indicated otherwise, herbicide A, trifludimoxazin and saflufenacil were formulated (50 g/I) and applied with addition of 1% MSO (methylated seed oil) as adjuvant. The solvent used was water (200 I/ha).
# [4] = test system: Hordeum vulgare (HORVS); experiment: Post-emergence application in field trials, HORVS; conditions: water volume 100 l/ha, pre plant burndown, 18 g ai/ha
# Experimental: as §1, §2, §3, §4, §5
# (§13) In the following experiments, the herbicidal activity for the individual herbicidal compositions (solo and mixture applications) was assessed at the indicated days after treatment (DAT). The assessments for the damage on undesired weeds caused by the composition was carried out using a scale from 0 to 100%, compared to the untreated control plants. Here, 0 means no damage and 100 means complete destruction of the plants.
# (§14) Herbicide A-1 (100 g/l) and trifludimoxazin (500 g/l) were, together with addition of 1% MSO (methylated seed oil) as adjuvant (unless indicated otherwise), formulated in water as distribution medium as indicated and sprayed with commercial flat fan nozzles.
# [5] = test system: Setaria italica (SETIT); experiment: Post-emergence application in field trials, SETIT; conditions: 22 DAT, water volume 200 l/ha, growth stage 21-31
# Experimental: as §1, §2, §3, §4, §5, §6
# [6] = test system: Avena fatua (AVEFA); experiment: Post-emergence application in greenhouse trials, AVEFA
# Experimental: as §1, §2, §7, §8, §9, §10, §11, §12
# [7] = test system: Sorghum halapense (SORHA); experiment: Post-emergence application in greenhouse trials, SORHA
# Experimental: as §1, §2, §7, §8, §9, §10, §11, §12
# [8] = test system: Setaria faberi (SETFA); experiment: Post-emergence application in greenhouse trials, SETFA; conditions: GS 13
# Experimental: as §1, §2, §7, §8, §9, §10, §11, §12
# [9] = test system: Echinocloa crus-galli (ECHCG); experiment: Post-emergence application in greenhouse trials, ECHCG; conditions: GS 13
# Experimental: as §1, §2, §7, §8, §9, §10, §11, §12
# [10] = test system: Euphorbia heterophylla (EPHHL); experiment: Post-emergence application in field trials, EPHHL; conditions: 43 DAT, water volume 200 l/ha, growth stage 16-18, height 10-15 cm
# Experimental: as §1, §2, §3, §4, §5, §6
# [11] = test system: Sorghum bicolor (SORVU); experiment: Post-emergence application in field trials, SORVU; conditions: 22 DAT, water volume 200 l/ha, growth stage 21-31, volunteer crop, non PPO-i herbicide tolerant
# Experimental: as §1, §2, §3, §4, §5, §6
# [12] = test system: Sinapis alba (SINAL); experiment: Post-emergence application in field trials, SINAL; conditions: 7 DAT; water volume 200 l/ha; growth stage 14-21; height 11-12 cm; 12.5 g ai/ha
# Experimental: as §1, §2, §3, §4, §5, §6
# [13] = test system: Avena fatua (AVEFA); experiment: Post-emergence application in field trials, AVEFA; conditions: 29 DAT; water volume 100 l/ha; pre plant burndown; growth stage 14-23; height 24-40 cm; 18 g ai/ha
# Experimental: as §1, §2, §3, §4, §5, §13, §14
# [14] = test system: Commelina benghalensis (COMBE); experiment: Post-emergence application in greenhouse trials, COMBE
# Experimental: as §1, §2, §7, §8, §9, §10, §11, §12
# [15] = test system: Digitaria sanguinales (DIGSA); experiment: Post-emergence application in greenhouse trials, DIGSA
# Experimental: as §1, §2, §7, §8, §9, §10, §11, §12
# [16] = 20 DAT, growth stage 14, 0.3 g ai/ha
# [17] = 28 DAT, growth stage 21-24, height 15-37 cm
# [18] = 29 DAT, growth stage 15-24, height 25-45 cm
# [19] = 20 DAT, growth stage 21, 0.3 g ai/ha
structure (smiles),measurement,setting,value
"C#CCN1C(=O)C(F)(F)Oc2cc(F)c(-n3c(=O)n(C)c(=S)n(C)c3=O)cc21 [B-1, trifludimoxazin]",% Herbicidal activity,[1],27%
same,% Herbicidal activity,[2]; B-1 1.1 g ai/ha,40%
same,% Herbicidal activity,"[3]; 7 DAT, GS 14, B-1 0.3 g ai/ha",35%
same,% Herbicidal activity,"[3]; 7 DAT, GS 14, B-1 0.8 g ai/ha",45%
same,% Herbicidal activity,"[3]; 7 DAT, GS 14, B-1 0.9 g ai/ha",55%
same,% Herbicidal activity,"[3]; 7 DAT, GS 14, B-1 1 g ai/ha",60%
same,% Herbicidal activity,"[3]; 20 DAT, GS 14, B-1 0.3 g ai/ha",10%
same,% Herbicidal activity,"[3]; 20 DAT, GS 14, B-1 0.9 g ai/ha",70%
same,% Herbicidal activity,[3]; [16],10%
same,% Herbicidal activity,[4]; [17],0%
same,% Herbicidal activity,[4]; [18],0%
same,% Herbicidal activity,[5]; 12.5 g ai/ha,27%
same,% Herbicidal activity,"[6]; 7 DAT, GS 13, B-1 0.2 g ai/ha",20%
same,% Herbicidal activity,"[6]; 20 DAT, B-1 formulated as 500 g/l, GS 12, B-1 1 g ai/ha",15%
same,% Herbicidal activity,"[6]; 20 DAT, growth stage 13, 0.9 g ai/ha",20%
same,% Herbicidal activity,"[7]; 7 DAT, B-1 formulated as 500 g/l, GS 14, B-1 1 g ai/ha",15%
same,% Herbicidal activity,"[7]; 7 DAT, B-1 formulated as 500 g/l, GS 14, B-1 2 g ai/ha",35%
same,% Herbicidal activity,"[7]; 20 DAT, B-1 formulated as 500 g/l, GS 14, B-1 2 g ai/ha",30%
same,% Herbicidal activity,"[7]; 20 DAT, GS 14, B-1 0.9 g ai/ha",65%
same,% Herbicidal activity,"[7]; 20 DAT, GS 14, B-1 1.1 g ai/ha",65%
same,% Herbicidal activity,[7]; [16],10%
same,% Herbicidal activity,"[8]; 7 DAT, B-1 0.9 g ai/ha",45%
same,% Herbicidal activity,"[8]; 20 DAT, B-1 0.3 g ai/ha",15%
same,% Herbicidal activity,"[8]; 20 DAT, B-1 0.9 g ai/ha",70%
same,% Herbicidal activity,"[9]; 7 DAT, B-1 0.8 g ai/ha",40%
same,% Herbicidal activity,"[9]; 20 DAT, B-1 1.1 g ai/ha",60%
same,% Herbicidal activity,[10]; 12.5 g ai/ha,60%
same,% Herbicidal activity,[11]; 12.5 g ai/ha,20%
same,% Herbicidal activity,[12],82%
same,% Herbicidal activity,[13],0%
same,% Herbicidal activity,"[14]; 6 DAT, GS 21, B-1 0.3 g ai/ha",45%
same,% Herbicidal activity,"[14]; 20 DAT, GS 21, B-1 0.3 g ai/ha",0%
same,% Herbicidal activity,"[14]; 20 DAT, GS 21, B-1 0.9 g ai/ha",15%
same,% Herbicidal activity,[14]; [19],0%
same,% Herbicidal activity,"[15]; 7 DAT, GS 12, B-1 0.3 g ai/ha",15% and 10%
same,% Herbicidal activity,"[15]; 7 DAT, GS 12, B-1 0.4 g ai/ha",15%
same,% Herbicidal activity,"[15]; 7 DAT, GS 12, B-1 0.8 g ai/ha",45%
same,% Herbicidal activity,"[15]; 19 DAT, B-1 formulated as 500 g/l, GS 13, B-1 2 g ai/ha",40%
"CCOC(=O)COc1ccccc1Oc1nc(-n2c(=O)cc(C(F)(F)F)n(C)c2=O)c(F)cc1Cl [A-1, ethyl 2-[2-[[3-chloro-5-fluoro-6-[3-methyl-2,6-dioxo-4-(trifluoromethyl)pyrimidin-1-yl]-2-pyridyl]oxy]phenoxy]acetate]",% Herbicidal activity,[1],70%
same,% Herbicidal activity,[2]; A-1 0.2 g ai/ha,10%
same,% Herbicidal activity,"[3]; 7 DAT, GS 14, A-1 0.2 g ai/ha",30%
same,% Herbicidal activity,"[3]; 7 DAT, GS 14, A-1 0.3 g ai/ha",30%
same,% Herbicidal activity,"[3]; 7 DAT, GS 14, A-1 0.4 g ai/ha",40%
same,% Herbicidal activity,"[3]; 20 DAT, GS 14, A-1 0.3 g ai/ha",15%
same,% Herbicidal activity,[3]; [16],15%
same,% Herbicidal activity,[4]; [17],89%
same,% Herbicidal activity,[4]; [18],73%
same,% Herbicidal activity,[5]; 30 g ai/ha,88%
same,% Herbicidal activity,"[6]; 7 DAT, GS 13, A-1 1 g ai/ha",65%
same,% Herbicidal activity,"[6]; 20 DAT, B-1 formulated as 500 g/l, GS 12, A-1 2 g ai/ha",98%
same,% Herbicidal activity,"[6]; 20 DAT, GS 13, A-1 0.3 g ai/ha",15%
same,% Herbicidal activity,"[6]; 20 DAT, growth stage 13, 0.3 g ai/ha",15%
same,% Herbicidal activity,"[7]; 7 DAT, B-1 formulated as 500 g/l, GS 14, A-1 2 g ai/ha",80%
same,% Herbicidal activity,"[7]; 20 DAT, B-1 formulated as 500 g/l, GS 14, A-1 2 g ai/ha",60%
same,% Herbicidal activity,"[7]; 20 DAT, GS 14, A-1 0.2 g ai/ha",10%
same,% Herbicidal activity,"[7]; 20 DAT, GS 14, A-1 0.3 g ai/ha",10%
same,% Herbicidal activity,[7]; [16],10%
same,% Herbicidal activity,"[8]; 7 DAT, A-1 0.3 g ai/ha",55%
same,% Herbicidal activity,"[8]; 7 DAT, A-1 0.5 g ai/ha",80%
same,% Herbicidal activity,"[8]; 20 DAT, A-1 0.3 g ai/ha",80%
same,% Herbicidal activity,"[9]; 7 DAT, A-1 0.4 g ai/ha",40%
same,% Herbicidal activity,"[9]; 20 DAT, A-1 0.2 g ai/ha",0%
same,% Herbicidal activity,[10]; 20 g ai/ha,73%
same,% Herbicidal activity,[11]; 20 g ai/ha,93%
same,% Herbicidal activity,[12],55%
same,% Herbicidal activity,[13],80%
same,% Herbicidal activity,"[14]; 6 DAT, GS 21, A-1 0.3 g ai/ha",65%
same,% Herbicidal activity,"[14]; 20 DAT, GS 21, A-1 0.3 g ai/ha",45%
same,% Herbicidal activity,[14]; [19],45%
same,% Herbicidal activity,"[15]; 7 DAT, GS 12, A-1 0.3 g ai/ha",45%
same,% Herbicidal activity,"[15]; 7 DAT, GS 12, A-1 0.4 g ai/ha",50%
same,% Herbicidal activity,"[15]; 7 DAT, GS 12, A-1 0.8 g ai/ha",65%
same,% Herbicidal activity,"[15]; 7 DAT, GS 12, A-1 0.9 g ai/ha",90%
same,% Herbicidal activity,"[15]; 19 DAT, B-1 formulated as 500 g/l, GS 13, A-1 1 g ai/ha",95%
